We go through eight test systems from the supplement of paper PMC10331698.

± gives the standard deviation of the averaged measurements.

Assay in all cases: level (log10 ratio to DMSO vehicle control); higher = higher biomarker level / cell amount than vehicle control
Conditions in all cases: in DMSO

Compound in one assay: NC(=O)C(F)(F)C(F)(F)C(F)(F)C(F)(F)C(N)=O [Octafluoroadipamide]
Here is the method: (§1)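 BioMAP Diversity Plus panel of 12 human primary cell co-culture systems (3C, 4H, LPS, SAg, BT, BF4T, BE3C, CASM3C, HDF3CGF, KF3CT, MyoF, Mphg). Compounds were added 1 h before stimulation and left for 24 h (MyoF 48 h; BT 72 h for soluble read-outs or 6 d for IgG). Biomarkers were read by ELISA, cytotoxicity by SRB, PBMC viability and proliferation by Alamar Blue. Each well value was divided by the mean of 8 DMSO control wells on the same plate and log10 transformed; duplicate blinded samples were tested at 4 concentrations.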

Compound in assay [1]: FC(F)(F)C(F)(F)C(F)(F)CC1CO1 [1H,1H-Heptafluorobutyl epoxide]
As for the experimental part:
as §1

Compound in assay [2]: O=S(=O)(F)C(F)(F)C(F)(F)C(F)(F)C(F)(F)C(F)(F)C(F)(F)C(F)(F)C(F)(F)F [Perfluorooctanesulfonyl fluoride]
As for the experimental part: as §1

Compound in a further assay: FC(F)(F)C(F)(F)C(F)(F)CI [Heptafluorobutyl iodide]
As for the experimental part:
as §1

Compound in assay [3]: O=S(=O)(Cl)C(F)(F)C(F)(F)C(F)(F)C(F)(F)C(F)(F)C(F)(F)C(F)(F)C(F)(F)F [Perfluoro-1-octanesulfonyl chloride]
As for the experimental part:
as §1

Compound in assay [4]: O=C(O)C=CC(F)(C(F)(F)F)C(F)(F)F [3-(Perfluoroisopropyl)-2-propenoic acid]
Here is the method: as §1

Turning to BE3C:MMP-1, the “level (log10)” value with Octafluoroadipamide (6700 nM) was -0.01 ± 0.0028; with Octafluoroadipamide (20000 nM), -0.023 ± 0.037; with Octafluoroadipamide (60000 nM), 0.0305 ± 0.074; in assay [1] (6700 nM), 0.003 ± 0.027; in assay [1] (20000 nM), 0.002 ± 0.055; in assay [1] (60000 nM), 0.041 ± 0.092. Also, the “level (log10)” value in assay [2] (6700 nM) is -0.0045 ± 0.00071; in assay [2] (20000 nM), -0.001 ± 0.014; in assay [2] (60000 nM), -0.0005 ± 0.013; with Heptafluorobutyl iodide (6700 nM) it was 0 ± 0.0014; in the assay with Heptafluorobutyl iodide (20000 nM), -0.0085 ± 0.005; in the assay with Heptafluorobutyl iodide (60000 nM), 0.02 ± 0.0099. Besides, the “level (log10)” value in assay [3] (6700 nM) is 0.075 ± 0.03; in assay [3] (20000 nM), 0.27 ± 0.012; in assay [3] (60000 nM) it was -0.178 ± 0.047; in assay [4] (6700 nM), 0.0495 ± 0.06; in assay [4] (20000 nM), 0.034 ± 0.061; in assay [4] (60000 nM), 0.085 ± 0.0028.

With HDF3CGF:CD54/ICAM-1, the “level (log10)” value was 0.011 ± 0.027 with Octafluoroadipamide (6700 nM); 0.043 ± 0.0099 with Octafluoroadipamide (20000 nM); 0.055 ± 0.073 in the assay with Octafluoroadipamide (60000 nM); -0.0045 ± 0.022 in assay [1] (6700 nM); -0.0115 ± 0.04 in assay [1] (20000 nM); -0.0215 ± 0.06 in assay [1] (60000 nM). Moreover, the “level (log10)” value is -0.013 ± 0.018 in assay [2] (6700 nM); -0.011 ± 0.0014 in assay [2] (20000 nM); -0.006 ± 0.013 in assay [2] (60000 nM); -0.004 ± 0.0028 with Heptafluorobutyl iodide (6700 nM); 0.0005 ± 0.005 in the assay with Heptafluorobutyl iodide (20000 nM); 0.002 ± 0.0028 with Heptafluorobutyl iodide (60000 nM). The “level (log10)” value in assay [3] (6700 nM) is 0.039 ± 0.023; in assay [3] (20000 nM) it was 0.034 ± 0.051; in assay [3] (60000 nM) it was 0.0005 ± 0.03; in assay [4] (6700 nM), -0.0105 ± 0.005; in assay [4] (20000 nM) it was -0.0055 ± 0.015; in assay [4] (60000 nM), -0.024 ± 0.016.

For the test system CASM3C:CD87/uPAR, the “level (log10)” value with Octafluoroadipamide (6700 nM) is -0.023 ± 0.051; in the assay with Octafluoroadipamide (20000 nM), -0.0495 ± 0.077; in the assay with Octafluoroadipamide (60000 nM), -0.057 ± 0.041; in assay [1] (6700 nM) it was -0.023 ± 0.0057; in assay [1] (20000 nM), -0.017 ± 0.035; in assay [1] (60000 nM), -0.019 ± 0.017. For the same test system, the “level (log10)” value was 0.0105 ± 0.0035 in assay [2] (6700 nM); 0.0065 ± 0.005 in assay [2] (20000 nM); 0.0225 ± 0.012 in assay [2] (60000 nM); -0.017 ± 0.0042 with Heptafluorobutyl iodide (6700 nM); 0.0205 ± 0.029 in the assay with Heptafluorobutyl iodide (20000 nM); -0.0015 ± 0.00071 in the assay with Heptafluorobutyl iodide (60000 nM). Further, the “level (log10)” value in assay [3] (6700 nM) is -0.0235 ± 0.054; in assay [3] (20000 nM), -0.0285 ± 0.054; in assay [3] (60000 nM) it was -0.0155 ± 0.069; in assay [4] (6700 nM), -0.006 ± 0.0057; in assay [4] (20000 nM) it was -0.0135 ± 0.012; in assay [4] (60000 nM), -0.015 ± 0.0042.

For HDF3CGF:PAI-I, the “level (log10)” value with Octafluoroadipamide (6700 nM) is 0.018 ± 0.0099; in the assay with Octafluoroadipamide (20000 nM), 0.018 ± 0.0014; with Octafluoroadipamide (60000 nM), 0.009 ± 0.0014; in assay [1] (6700 nM), -0.0135 ± 0.0035; in assay [1] (20000 nM) it was -0.0175 ± 0.0064; in assay [1] (60000 nM), 0.009 ± 0.025. Further, the “level (log10)” value is 0.0235 ± 0.12 in assay [2] (6700 nM); 0.035 ± 0.013 in assay [2] (20000 nM); 0.101 ± 0.033 in assay [2] (60000 nM); 0.0035 ± 0.043 with Heptafluorobutyl iodide (6700 nM); -0.004 ± 0.03 with Heptafluorobutyl iodide (20000 nM); -0.018 ± 0.027 with Heptafluorobutyl iodide (60000 nM). For the same test system, the “level (log10)” value in assay [3] (6700 nM) is 0.0185 ± 0.0021; in assay [3] (20000 nM), 0.0435 ± 0.0064; in assay [3] (60000 nM) it was 0.0255 ± 0.032; in assay [4] (6700 nM), -0.0085 ± 0.018; in assay [4] (20000 nM), -0.0215 ± 0.015; in assay [4] (60000 nM), -0.0005 ± 0.032.

Consider CASM3C:M-CSF, for which the “level (log10)” value is -0.0095 ± 0.0078 with Octafluoroadipamide (6700 nM); -0.01 ± 0.0085 with Octafluoroadipamide (20000 nM); -0.0065 ± 0.0092 in the assay with Octafluoroadipamide (60000 nM); -0.0205 ± 0.029 in assay [1] (6700 nM); -0.015 ± 0.0042 in assay [1] (20000 nM); -0.014 ± 0.033 in assay [1] (60000 nM). Besides, the “level (log10)” value in assay [2] (6700 nM) was 0.0005 ± 0.013; in assay [2] (20000 nM), -0.0185 ± 0.028; in assay [2] (60000 nM) it was 0.0085 ± 0.021; with Heptafluorobutyl iodide (6700 nM) it was -0.001 ± 0.0042; with Heptafluorobutyl iodide (20000 nM), -0.0165 ± 0.0021; with Heptafluorobutyl iodide (60000 nM), 0.0195 ± 0.037. The “level (log10)” value in assay [3] (6700 nM) was 0.008 ± 0.014; in assay [3] (20000 nM) it was 0.0095 ± 0.018; in assay [3] (60000 nM), 0.0425 ± 0.005; in assay [4] (6700 nM) it was -0.0195 ± 0.0078; in assay [4] (20000 nM), -0.0175 ± 0.011; in assay [4] (60000 nM), 0.009 ± 0.034.

Regarding 3C:CD62E/E-Selectin, the “level (log10)” value with Octafluoroadipamide (6700 nM) is -0.0175 ± 0.011; with Octafluoroadipamide (20000 nM), -0.0115 ± 0.0064; with Octafluoroadipamide (60000 nM), 0.012 ± 0.016; in assay [1] (6700 nM), -0.011 ± 0.023; in assay [1] (20000 nM), 0.002 ± 0.013; in assay [1] (60000 nM), 0.0075 ± 0.0035. In addition, the “level (log10)” value was -0.006 ± 0.0057 in assay [2] (6700 nM); -0.01 in assay [2] (20000 nM); -0.006 ± 0.024 in assay [2] (60000 nM); -0.012 ± 0.024 with Heptafluorobutyl iodide (6700 nM); -0.0115 ± 0.0021 with Heptafluorobutyl iodide (20000 nM); -0.0165 ± 0.03 in the assay with Heptafluorobutyl iodide (60000 nM). Further, the “level (log10)” value in assay [3] (6700 nM) was -0.017 ± 0.0071; in assay [3] (20000 nM), 0.0135 ± 0.021; in assay [3] (60000 nM) it was 0.11 ± 0.021; in assay [4] (6700 nM), -0.009 ± 0.013; in assay [4] (20000 nM), -0.031 ± 0.0085; in assay [4] (60000 nM) it was -0.0155 ± 0.013.

On to 3C:CD141/Thrombomodulin, for which the “level (log10)” value with Octafluoroadipamide (6700 nM) was 0.0505 ± 0.044; with Octafluoroadipamide (20000 nM), 0.048 ± 0.02; in the assay with Octafluoroadipamide (60000 nM) it was 0.064 ± 0.0099; in assay [1] (6700 nM) it was 0.0125 ± 0.053; in assay [1] (20000 nM), -0.034 ± 0.04; in assay [1] (60000 nM) it was -0.0575 ± 0.08. Moreover, the “level (log10)” value was -0.021 ± 0.0099 in assay [2] (6700 nM); -0.0235 ± 0.026 in assay [2] (20000 nM); -0.0245 ± 0.028 in assay [2] (60000 nM); -0.0335 ± 0.04 with Heptafluorobutyl iodide (6700 nM); -0.0305 ± 0.005 with Heptafluorobutyl iodide (20000 nM); -0.025 ± 0.014 with Heptafluorobutyl iodide (60000 nM). Also, the “level (log10)” value in assay [3] (6700 nM) was 0.012 ± 0.025; in assay [3] (20000 nM), 0.0215 ± 0.016; in assay [3] (60000 nM), 0.186 ± 0.0021; in assay [4] (6700 nM), -0.0125 ± 0.023; in assay [4] (20000 nM) it was -0.006 ± 0.0057; in assay [4] (60000 nM) it was 0.0045 ± 0.016.

As for HDF3CGF:EGFR, the “level (log10)” value was -0.012 ± 0.082 with Octafluoroadipamide (6700 nM); 0.0015 ± 0.054 in the assay with Octafluoroadipamide (20000 nM); 0.0145 ± 0.087 with Octafluoroadipamide (60000 nM); -0.004 ± 0.014 in assay [1] (6700 nM); -0.004 ± 0.0028 in assay [1] (20000 nM); 0.023 ± 0.047 in assay [1] (60000 nM). Moreover, the “level (log10)” value in assay [2] (6700 nM) was -0.0255 ± 0.067; in assay [2] (20000 nM), -0.089 ± 0.17; in assay [2] (60000 nM) it was -0.0715 ± 0.19; with Heptafluorobutyl iodide (6700 nM), -0.0495 ± 0.064; with Heptafluorobutyl iodide (20000 nM) it was -0.054 ± 0.072; with Heptafluorobutyl iodide (60000 nM), -0.0055 ± 0.04. Moreover, the “level (log10)” value was -0.082 ± 0.045 in assay [3] (6700 nM); -0.0785 ± 0.015 in assay [3] (20000 nM); 0.031 ± 0.035 in assay [3] (60000 nM); -0.0025 ± 0.005 in assay [4] (6700 nM); 0.0015 ± 0.005 in assay [4] (20000 nM); 0.0265 ± 0.025 in assay [4] (60000 nM).
